The nature of the data set: Microscopic observation of gel compositions for methylparaben crystalline particles. In kind it is physicochemical. Here is the method: Microscopic observations were performed on additional representative batches of brimonidine topical gel compositions and placebo gel compositions containing 1.25% (w/w) carbomer, POBM and other ingredients. The observations have been done on one tube of each batch, with the microscope Axiolab DRBKT Zeiss no. 023733.01 with a camera ICC Zeiss or the microscope Olympus BX60. The microscopic observations were done at 5° C. and room temperature.
Numerous formulations with different ingredients and varying concentrations of the ingredients were made and tested for the presence of the paraben crystals by microscopic observations. The microbiological quality of the formulations was also analyzed by using acceptance-test criteria in preservative-efficacy testing (PET) in the United States Pharmacopeia (USP) and the European Pharmacopoeia (EP).

The record followed here is patent US10201517B2, “Brimonidine gel compositions and methods of use” (Galderma Laboratories, L.P., priority 2010, dated 2019).

For the molecule `COC(=O)c1ccc([O-])cc1.[Na+]` [Na POBM], the “crystalline particles in formulation” value (methylparaben replaced with Na POBM at 0.3% (w/w)) is “crystalline particles of Na POBM were still observed”.

As for `COC(=O)c1ccc(O)cc1` [methylparaben, methyl parahydroxybenzoate], the recrystallization in formulation result (addition of 0.1% of EDTA, POBM at 0.3% (w/w)) is given as “immediate recrystallization”.
